# Experimental data taken from article PMC12715762, “Discovery of VU6052254: A Novel, Potent M1 Positive Allosteric Modulator” (ACS Chemical Neuroscience, 2025).
# Experiments:
# [1] = plasma protein binding, equilibrium dialysis (cyno); assay type: in vitro ADME; conditions: cynomolgus monkey, pH 7.4, cyno (c), read-out: fu,plasma
# Method: Plasma protein binding and Brain homogenate binding: Determination of fraction unbound (f u) in plasma was conducted in vitro via equilibrium dialysis using HTDialysis (HTD) membrane plates. The top half of the plate was filled with 100 uL of Dubelco’s Phosphate Buffered Saline, pH 7.4 (DPBS). Compounds were diluted into plasma from each species (5 µM final concentration), which was aliquoted in triplicate to the ‘bottom half’ of the prepared HTD plate wells. The HTD plate was sealed and incubated for 6 hours at 37 °C. Following incubation, each well (both top and bottom halves) were transferred (20 µL) to the corresponding wells of a 96-shallow-well (V-bottom) plate. […]
# The unbound fraction (f u) was calculated following the equation below, and mean values for each species were calculated from 3 replicates.
# A similar approach was used to determine the degree of brain homogenate binding, which employed the same methodology and procedure with the following modifications: 1) a final compound concentration of 1 μM was used, 2) naïve rat brains were homogenized in DPBS (1:3 composition of brain: DPBS, w/w) using a Mini-Bead Beater™ machine in order to obtain brain homogenate, which was then treated in the same manner as the plasma samples in the previously described plasma protein binding assay. Fraction unbound for both plasma and brain samples was determined using Equation 4. […]
# CYP 2D6 = CYP 2D6 (Homo sapiens, UniProt P10635); experiment: CYP450 inhibition; assay type: in vitro ADME
# hERG = biological target: T1, hERG (Homo sapiens, UniProt Q12809); experiment: functional hERG manual patch clamp (MPC) assay; assay type: cell-based
# T1 construct: Charles River
# [2] = test system: mouse native tissue layer V medial prefrontal cortex (mPFC); experiment: electrophysiology (fEPSP, LTD) in layer V medial prefrontal cortex; conditions: 10 μM
# Excerpt: Based on our previous experience, ,− , PAM 7 is expected to display robust pro-cognitive efficacy and maintain activity dependence of prefrontal cortical (PFC) function.
# [3] = IV/PO pharmacokinetics (dog); assay type: in vivo; conditions: Dog (beagle)
# mice = experiment: modified Irwin neurological test battery; assay type: in vivo, mouse; conditions: result in words
# Method: To assess peripheral cholinergic toxicity, a modified Irwin neurological battery was performed to score autonomic or somatosensory side effects (Figure ).
# GSH trapping = assay type: in vitro ADME; conditions: human microsomes; result in words
# 3A4 = experiment: CYP induction repeated at a different CRO (mRNA and protein); assay type: cell-based; conditions: result in words
# Adrenergic α1B = Adrenergic α1B (Homo sapiens, UniProt P35368); experiment: Eurofins radioligand binding
# Cannabinoid CB1 = Cannabinoid CB1 (Homo sapiens, UniProt P21554); experiment: Eurofins radioligand binding
# Dopamine D3 = Dopamine D3 (Homo sapiens, UniProt P35462); experiment: Eurofins radioligand binding
# Dopamine D3, sequence (P35462 whole entry): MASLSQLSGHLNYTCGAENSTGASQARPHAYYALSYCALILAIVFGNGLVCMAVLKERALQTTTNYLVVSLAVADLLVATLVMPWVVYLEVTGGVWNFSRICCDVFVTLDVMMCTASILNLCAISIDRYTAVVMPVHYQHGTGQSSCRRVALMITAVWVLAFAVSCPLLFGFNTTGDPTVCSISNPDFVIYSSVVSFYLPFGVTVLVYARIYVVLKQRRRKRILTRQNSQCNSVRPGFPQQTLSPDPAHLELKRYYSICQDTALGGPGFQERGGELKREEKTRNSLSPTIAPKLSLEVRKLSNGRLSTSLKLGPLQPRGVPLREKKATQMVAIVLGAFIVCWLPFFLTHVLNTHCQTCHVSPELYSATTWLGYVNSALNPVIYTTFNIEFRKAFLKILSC
# Endothelin ETA = Endothelin ETA (Homo sapiens, UniProt P25101); experiment: Eurofins radioligand binding
# Endothelin ETA, sequence (P25101 21-427): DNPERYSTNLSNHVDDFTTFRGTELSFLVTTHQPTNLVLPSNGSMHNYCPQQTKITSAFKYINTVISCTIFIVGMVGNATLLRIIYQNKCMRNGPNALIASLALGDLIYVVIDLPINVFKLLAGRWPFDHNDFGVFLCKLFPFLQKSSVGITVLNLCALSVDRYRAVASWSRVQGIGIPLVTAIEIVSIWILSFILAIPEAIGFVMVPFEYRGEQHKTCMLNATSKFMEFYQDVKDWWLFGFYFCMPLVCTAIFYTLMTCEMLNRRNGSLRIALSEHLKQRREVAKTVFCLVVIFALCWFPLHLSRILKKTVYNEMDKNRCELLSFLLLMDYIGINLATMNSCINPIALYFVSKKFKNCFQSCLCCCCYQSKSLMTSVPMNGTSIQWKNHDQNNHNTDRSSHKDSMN
# [4] = biological target: Epidermal Growth Factor (EGF) (Homo sapiens, UniProt P00533); experiment: Eurofins radioligand binding
# GABAA, Muscimol, Central = experiment: Eurofins radioligand binding; conditions: Rat
# GABAB1A = GABAB1A (Homo sapiens, UniProt Q9UBS5); experiment: Eurofins radioligand binding
# Glucocorticoid = Glucocorticoid (Homo sapiens, UniProt P04150); experiment: Eurofins radioligand binding
# Glucocorticoid, sequence (P04150 whole entry): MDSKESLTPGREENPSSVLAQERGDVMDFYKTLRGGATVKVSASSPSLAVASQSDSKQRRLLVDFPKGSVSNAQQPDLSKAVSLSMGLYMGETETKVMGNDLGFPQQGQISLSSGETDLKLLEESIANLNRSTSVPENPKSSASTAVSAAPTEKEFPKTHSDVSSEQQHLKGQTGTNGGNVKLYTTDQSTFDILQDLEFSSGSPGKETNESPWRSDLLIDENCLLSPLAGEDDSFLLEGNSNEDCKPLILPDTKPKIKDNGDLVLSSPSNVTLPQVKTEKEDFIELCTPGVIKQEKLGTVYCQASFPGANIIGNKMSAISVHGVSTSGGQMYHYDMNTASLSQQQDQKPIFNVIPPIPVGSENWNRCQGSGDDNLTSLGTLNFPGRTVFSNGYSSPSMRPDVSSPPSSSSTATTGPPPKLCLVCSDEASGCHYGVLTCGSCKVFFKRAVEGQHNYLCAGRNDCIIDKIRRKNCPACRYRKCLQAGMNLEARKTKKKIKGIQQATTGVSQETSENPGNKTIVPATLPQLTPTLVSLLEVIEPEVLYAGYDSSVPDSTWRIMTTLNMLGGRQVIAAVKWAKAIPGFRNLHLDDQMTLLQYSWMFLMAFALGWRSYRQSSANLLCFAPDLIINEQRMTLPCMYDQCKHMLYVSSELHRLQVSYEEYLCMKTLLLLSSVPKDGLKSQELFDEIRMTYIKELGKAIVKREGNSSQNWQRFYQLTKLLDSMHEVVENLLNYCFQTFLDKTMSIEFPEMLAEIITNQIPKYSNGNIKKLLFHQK
# Glutamate, NMDA, Agonism = experiment: Eurofins radioligand binding; conditions: Rat
# Histamine H2 = Histamine H2 (Homo sapiens, UniProt P25021); experiment: Eurofins radioligand binding
# Interleukin IL-1 R1 = Interleukin IL-1 R1 (Homo sapiens, UniProt P14778); experiment: Eurofins radioligand binding
# Interleukin IL-1 R1, sequence (P14778 18-569): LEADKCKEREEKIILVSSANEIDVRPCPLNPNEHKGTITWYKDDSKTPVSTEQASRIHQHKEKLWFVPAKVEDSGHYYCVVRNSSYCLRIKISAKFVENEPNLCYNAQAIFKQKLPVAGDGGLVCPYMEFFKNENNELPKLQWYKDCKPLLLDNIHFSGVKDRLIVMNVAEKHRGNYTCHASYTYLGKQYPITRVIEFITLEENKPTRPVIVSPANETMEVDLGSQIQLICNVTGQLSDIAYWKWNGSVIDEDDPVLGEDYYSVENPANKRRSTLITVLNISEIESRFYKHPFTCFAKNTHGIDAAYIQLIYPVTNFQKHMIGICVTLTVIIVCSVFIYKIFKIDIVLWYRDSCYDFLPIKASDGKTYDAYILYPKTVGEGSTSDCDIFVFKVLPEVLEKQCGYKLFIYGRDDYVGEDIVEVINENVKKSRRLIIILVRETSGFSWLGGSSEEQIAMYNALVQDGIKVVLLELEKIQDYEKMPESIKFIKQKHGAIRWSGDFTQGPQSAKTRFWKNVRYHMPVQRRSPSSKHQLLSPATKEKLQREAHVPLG
# [5] = biological target: Leukotriene, Cysteinyl CysLT1 (Homo sapiens, UniProt Q9Y271); experiment: Eurofins radioligand binding
# Leukotriene, Cysteinyl CysLT1, sequence (Q9Y271 whole entry): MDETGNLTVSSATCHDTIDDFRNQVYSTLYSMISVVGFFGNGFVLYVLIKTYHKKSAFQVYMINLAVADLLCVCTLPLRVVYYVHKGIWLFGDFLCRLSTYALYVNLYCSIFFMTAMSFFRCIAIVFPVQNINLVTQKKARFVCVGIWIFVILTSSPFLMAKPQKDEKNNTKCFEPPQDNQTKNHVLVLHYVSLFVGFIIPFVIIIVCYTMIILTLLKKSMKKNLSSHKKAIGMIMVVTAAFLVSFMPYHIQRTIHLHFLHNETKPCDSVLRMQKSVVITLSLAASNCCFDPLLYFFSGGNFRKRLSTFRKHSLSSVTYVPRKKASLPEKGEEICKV
# Melatonin MT1 = Melatonin MT1 (Homo sapiens, UniProt P48039); experiment: Eurofins radioligand binding
# Muscarinic M3 = Muscarinic M3 (Homo sapiens, UniProt P20309); experiment: Eurofins radioligand binding
# Muscarinic M3, sequence (P20309 whole entry): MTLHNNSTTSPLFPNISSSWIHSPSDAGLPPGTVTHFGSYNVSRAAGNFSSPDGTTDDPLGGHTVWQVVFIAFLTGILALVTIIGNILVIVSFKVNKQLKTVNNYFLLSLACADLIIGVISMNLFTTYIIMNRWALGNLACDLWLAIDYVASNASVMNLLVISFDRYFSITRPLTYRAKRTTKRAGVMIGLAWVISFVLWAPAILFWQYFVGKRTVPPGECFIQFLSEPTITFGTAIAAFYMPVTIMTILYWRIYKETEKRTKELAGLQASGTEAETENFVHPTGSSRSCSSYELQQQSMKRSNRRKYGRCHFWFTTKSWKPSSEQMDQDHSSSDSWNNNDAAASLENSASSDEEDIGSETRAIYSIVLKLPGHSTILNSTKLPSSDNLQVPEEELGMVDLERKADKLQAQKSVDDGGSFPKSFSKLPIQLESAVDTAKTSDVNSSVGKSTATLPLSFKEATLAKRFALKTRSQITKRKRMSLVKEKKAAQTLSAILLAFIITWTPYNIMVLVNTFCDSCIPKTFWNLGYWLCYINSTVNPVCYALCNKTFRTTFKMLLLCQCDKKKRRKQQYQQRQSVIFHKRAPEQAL
# Neuropeptide Y Y1 = Neuropeptide Y Y1 (Homo sapiens, UniProt P25929); experiment: Eurofins radioligand binding
# Neuropeptide Y Y1, sequence (P25929 whole entry): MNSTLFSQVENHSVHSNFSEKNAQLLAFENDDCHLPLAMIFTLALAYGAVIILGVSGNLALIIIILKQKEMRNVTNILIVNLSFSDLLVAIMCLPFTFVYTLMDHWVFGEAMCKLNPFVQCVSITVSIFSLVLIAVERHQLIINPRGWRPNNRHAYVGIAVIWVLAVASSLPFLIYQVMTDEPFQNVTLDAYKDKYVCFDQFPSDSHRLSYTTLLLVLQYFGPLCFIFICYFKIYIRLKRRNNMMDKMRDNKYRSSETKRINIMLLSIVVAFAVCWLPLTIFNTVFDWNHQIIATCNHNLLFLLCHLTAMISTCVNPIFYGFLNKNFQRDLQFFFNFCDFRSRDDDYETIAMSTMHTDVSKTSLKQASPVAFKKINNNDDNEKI
# Neuropeptide Y Y2 = Neuropeptide Y Y2 (Homo sapiens, UniProt P49146); experiment: Eurofins radioligand binding
# [6] = biological target: Nicotinic Acetylcholine α1, Bungarotoxin (Homo sapiens, UniProt P02708+P07510+Q07001); experiment: Eurofins radioligand binding; conditions: read-out: % Inhibition at 10 µM
# Sigma σ1 = Sigma σ1 (Homo sapiens, UniProt Q99720); experiment: Eurofins radioligand binding
# Sigma σ1, sequence (Q99720 whole entry): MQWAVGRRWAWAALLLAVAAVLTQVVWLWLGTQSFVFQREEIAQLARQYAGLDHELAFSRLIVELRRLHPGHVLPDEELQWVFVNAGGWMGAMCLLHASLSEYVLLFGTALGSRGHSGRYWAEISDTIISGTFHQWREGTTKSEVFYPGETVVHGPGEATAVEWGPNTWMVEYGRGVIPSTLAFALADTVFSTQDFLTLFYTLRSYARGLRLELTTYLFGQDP
# Tachykinin NK1 = Tachykinin NK1 (Homo sapiens, UniProt P25103); experiment: Eurofins radioligand binding
# [7] = biological target: Transporter, Dopamine (DAT) (Homo sapiens, UniProt Q01959); experiment: Eurofins radioligand binding
# Transporter, Dopamine (DAT), sequence (Q01959 whole entry): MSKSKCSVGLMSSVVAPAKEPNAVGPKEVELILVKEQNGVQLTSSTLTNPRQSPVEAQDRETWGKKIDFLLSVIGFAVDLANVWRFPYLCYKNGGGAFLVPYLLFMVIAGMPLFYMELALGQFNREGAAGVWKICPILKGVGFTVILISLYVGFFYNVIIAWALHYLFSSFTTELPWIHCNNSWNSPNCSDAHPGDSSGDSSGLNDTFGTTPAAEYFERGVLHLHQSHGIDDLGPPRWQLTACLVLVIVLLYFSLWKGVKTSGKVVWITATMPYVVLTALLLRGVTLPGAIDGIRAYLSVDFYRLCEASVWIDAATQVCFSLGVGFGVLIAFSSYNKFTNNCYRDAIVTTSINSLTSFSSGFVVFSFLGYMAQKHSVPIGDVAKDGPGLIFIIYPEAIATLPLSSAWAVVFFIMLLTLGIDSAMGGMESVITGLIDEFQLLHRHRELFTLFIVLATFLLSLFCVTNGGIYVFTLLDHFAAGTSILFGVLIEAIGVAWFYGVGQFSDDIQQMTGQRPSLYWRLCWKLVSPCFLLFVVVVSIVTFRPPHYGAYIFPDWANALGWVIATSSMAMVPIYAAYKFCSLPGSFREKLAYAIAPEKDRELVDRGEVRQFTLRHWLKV
# [8] = biological target: Transporter, Norepinephrine (NET) (Homo sapiens, UniProt P23975); experiment: Eurofins radioligand binding
# Transporter, Norepinephrine (NET), sequence (P23975 whole entry): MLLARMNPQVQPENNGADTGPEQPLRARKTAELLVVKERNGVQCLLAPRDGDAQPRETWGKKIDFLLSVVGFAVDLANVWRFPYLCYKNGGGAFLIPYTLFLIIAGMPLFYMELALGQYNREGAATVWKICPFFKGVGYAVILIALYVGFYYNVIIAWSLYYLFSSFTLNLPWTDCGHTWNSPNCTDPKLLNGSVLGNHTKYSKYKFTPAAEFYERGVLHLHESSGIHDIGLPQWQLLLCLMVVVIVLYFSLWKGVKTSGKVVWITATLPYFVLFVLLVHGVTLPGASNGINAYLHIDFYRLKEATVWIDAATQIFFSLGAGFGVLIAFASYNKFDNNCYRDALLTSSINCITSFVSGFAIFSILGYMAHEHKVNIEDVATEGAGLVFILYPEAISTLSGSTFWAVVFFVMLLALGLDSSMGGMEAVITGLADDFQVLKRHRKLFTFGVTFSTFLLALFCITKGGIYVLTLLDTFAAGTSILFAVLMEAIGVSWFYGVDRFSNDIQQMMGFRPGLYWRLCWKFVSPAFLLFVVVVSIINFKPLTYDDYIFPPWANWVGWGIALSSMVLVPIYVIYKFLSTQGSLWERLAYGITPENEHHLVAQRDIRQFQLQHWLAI
smiles,measurement,setting,value
Cn1cc2c(-c3cc(F)c(CN4Cc5ncccc5C4=O)c(F)c3)ccc(C(C)(C)O)c2n1 [compound 7],"fraction unbound at 6 h, 5 µM",[1],0.06
same,IC50,CYP 2D6,> 30 µM
same,IC50,hERG,> 30 µM
same,PPR,[2],112%
same,"field excitatory postsynaptic potentials (fEPSPs), % baseline",[2],86 % baseline
same,F (%) po,[3]; 3 mg/kg po,65%
same,clearance,"[3]; plasma, 1 mg/kg iv, read-out: CLp",8.4 mL/min/kg
same,half-life,"[3]; plasma, 1 mg/kg iv, read-out: Elimination t1/2 (converted)",4.1 h
same,Vd,"[3]; plasma, 1 mg/kg iv, read-out: Vss",2.3 L/kg
same,AUC,"[3]; plasma, 3 mg/kg po",9 µM·h
same,Cmax,"[3]; plasma, 3 mg/kg po",700 nM
same,Tmax,"[3]; plasma, 3 mg/kg po",1.33 h
same,adverse effects / SLUDGE in modified Irwin battery,"mice; 56.6 mg/kg IP, 6 h time course",minimal adverse effects or SLUDGE were noted
same,adverse effects / SLUDGE in modified Irwin battery,"mice; 56.6 mg/kg IP, 6 h time course, listed as VU6052254",minimal adverse cholinergic events (SLUDGE) were noted
same,adverse effects / SLUDGE in modified Irwin battery,mice; 100 mg/kg IP,more pronounced adverse effects seen
same,adverse effects / SLUDGE in modified Irwin battery,"mice; 100 mg/kg IP, listed as VU6052254",adverse cholinergic events (SLUDGE) were noted
same,GSH trapping,GSH trapping,no evidence of GSH trapping
same,"3A4 induction, mRNA and protein",3A4,not to be an inducer of 3A4
same,inhibition at 10 µM,Adrenergic α1B,8%
same,inhibition at 10 µM,Cannabinoid CB1,25%
same,inhibition at 10 µM,Dopamine D3,-10%
same,inhibition at 10 µM,Endothelin ETA,11%
same,inhibition at 10 µM,[4],-14%
same,% Inhibition at 10 µM,"GABAA, Muscimol, Central",-10%
same,inhibition at 10 µM,GABAB1A,7%
same,inhibition at 10 µM,Glucocorticoid,9%
same,% Inhibition at 10 µM,"Glutamate, NMDA, Agonism",-3%
same,inhibition at 10 µM,Histamine H2,2%
same,inhibition at 10 µM,Interleukin IL-1 R1,-10%
same,inhibition at 10 µM,[5],8%
same,inhibition at 10 µM,Melatonin MT1,-1%
same,inhibition at 10 µM,Muscarinic M3,7%
same,inhibition at 10 µM,Neuropeptide Y Y1,-10%
same,inhibition at 10 µM,Neuropeptide Y Y2,-9%
same,inhibition at 10 µM,[6],2%
same,inhibition at 10 µM,Sigma σ1,6%
same,inhibition at 10 µM,Tachykinin NK1,4%
same,inhibition at 10 µM,[7],7%
same,inhibition at 10 µM,[8],1%
